The values below come from US20180228720A1, “MELANOGENESIS INHIBITOR” (TAKASAGO INTERNATIONAL CORPORATION, priority 2015, published 2018).

One data set deals with B-16 melanoma cells. The data set can be described thus: Evaluation for melanin production-inhibitory activity against pigment cells. Conditions: cultured 4 days with sample, relative to negative control. The format is cell-based. How it is done: With respect to the components (compounds) of Examples 1 to 3 and Reference Example 1 shown in Table 1, the following test was performed, thereby studying the evaluation for melanin production-inhibitory activity.
In a plastic culture flask (25 cm^2), B-16 melanoma cells in a number of 1×10^5 were seeded and cultured in a 10% serum-containing DMEM medium (manufactured by Nippon Suisan Kaisha, Ltd.) in the presence of 5% carbon dioxide at 37° C. One day after the culture, an evaluation sample diluted with ethanol was added, and the cells were further cultured for 4 days. After completion of the culture, the medium was removed, and the cells were rinsed with PBS (phosphate buffer solution). Thereafter, the cells were detached from the plate by using a medium containing trypsin and EDTA (ethylenediaminetetraacetic acid) and harvested by means of centrifugation. The resulting cells were rinsed three times with 1 mL of 5% trichloroacetic acid controlled at 4° C., rinsed twice with 1 mL of an ethanol/diethyl ether (3/1) solution, and then rinsed once with 1 mL of diethyl ether. After drying, 1 mL of 2N sodium hydroxide was added to dissolve the cells at 60° C. After allowing the solution to stand for cooling, an absorbance at 415 nm was measured, thereby measuring the amount of melanin. Each measured value was calculated as a relative value (%) relative to a value of a negative control in which the evaluation sample was not exposed. The evaluation was performed by three times repetition.

The test system of a further data set is melanin production. Conditions: background art, Patent Documents 2 to 4; cited from earlier work.
Data set [1] concerns melanocyte-containing human three-dimensional cultured epidermal model, LabCyte MELANO-MODEL 24. The experiment in a line: Skin-whitening activity using melanocyte-containing human three-dimensional cultured epidermal tissue (amount of melanin, number of living cells by MTT). The format is cell-based. Conditions: sample 0.10% (positive control), 2 weeks culture, relative to negative control. As for the experimental part: A melanocyte-containing human three-dimensional cultured epidermal model, LabCyte […]-MODEL 24 (manufactured by Japan Tissue Engineering Co., Ltd.) was cultured in accordance with an instruction manual. That is, a culture cup having a human cultured epidermis charged therein was soaked in 1.5 mL of an improved melanin production-promoting medium, and an evaluation sample was added in the cup and exposed, followed by culture at 37° C. for 2 weeks in the presence of 5% carbon dioxide. The medium and the evaluation sample were exchanged once every two to three days. After completion of the culture, the number of living cells and the amount of melanin were measured according to the MTT assay by a method described in the instruction manual. Each measured value was calculated as a relative value (%) relative to a value of a negative control in which the evaluation sample was not exposed. The evaluation was performed by three times repetition.

Regarding `OC[C@H]1O[C@@H](Oc2ccc(O)cc2)[C@H](O)[C@@H](O)[C@@H]1O` [Arbutin], the results for the “Melanin inhibition ratio (%)” value in the data set with B-16 melanoma cells (3.13 μg/mL), in the data set on B-16 melanoma cells (6.25 μg/mL) and in the data set on B-16 melanoma cells (12.5 μg/mL) were 39%, 50% and 71%, respectively. As to `C[C@@H]1CC[C@H]2C(C)(C)[C@H]3C[C@@]12CC[C@@]3(C)O` [cedrol], the “Effect on melanin production (in words)” value in the data set with melanin production is reported as “exhibits a melanin production-inhibitory effect”.

Take `C=CC(C)(O)CCC=C(C)CCC=C(C)C` (stereo not shown) [nerolidol]: in the data set on melanin production, the “Effect on melanin production (in words)” value is listed as “exhibits a melanin production-inhibitory effect”. For `O=c1cc(CO)occ1O` [Kojic acid], the “Number of living cells (%)” value in data set [1] (MTT assay) is recorded as 92.3 ± 8.8%. In addition, the “Amount of melanin (%)” value in data set [1] is reported as 48.4 ± 4.0%.
